Results published in patent publication US9725703B2, “Formulations and methods for stabilizing PCR reagents” (BIOMATRICA, INC., priority 2012, dated 2017).

Molecular target: T1, Roche FastStart Taq polymerase (Thermus aquaticus, UniProt P19821)
T1 construct: purchased Roche
Test: Multiplex end-point PCR (GAPDH) with stabilized Roche FastStart Taq after storage
Type: biochemical
Conditions: 3 weeks at 45° C.; polymerase mixed 1:4 with stabilizer; FIG. 1b
Procedure: Roche FastStart Taq polymerase (stored at −20° C. in 50% glycerol) was mixed in a 1:4 ratio with a range of liquid stabilizer solutions as set forth in Table 4 and incubated at both room temperature and 45° C. A non-protected sample was also included where the polymerase was mixed with an additional quantity of its storage buffer. At various time points, aliquots were taken from the stabilized enzyme solutions and used to perform end-point PCR assays. At each time point, the stabilized enzymes were compared to a frozen positive control enzyme in the same assay.
For end-point PCR, a multiplex assay using three primer sets to generate 3 different size fragments of the GAPDH gene was used. Typical PCR reactions contained the following: 1× Roche PCR reaction buffer, 10 ng human genomic DNA, 300 μM dNTPs, 240 nM GAPDH primer set A, 600 nM GAPDH primer set B, 1.2 μM GAPDH primer set C, and 1 unit Roche FastStart Taq polymerase. Cycling conditions were 2 minutes at 95° C. followed by 35 cycles of 30 seconds at 95° C., 30 seconds at 56° C., 30 seconds at 68° C., followed by 5 minutes at 68° C. PCR products were run on 2% agarose gels and visualized using ethidium bromide.

T1 sequence (P19821 whole entry): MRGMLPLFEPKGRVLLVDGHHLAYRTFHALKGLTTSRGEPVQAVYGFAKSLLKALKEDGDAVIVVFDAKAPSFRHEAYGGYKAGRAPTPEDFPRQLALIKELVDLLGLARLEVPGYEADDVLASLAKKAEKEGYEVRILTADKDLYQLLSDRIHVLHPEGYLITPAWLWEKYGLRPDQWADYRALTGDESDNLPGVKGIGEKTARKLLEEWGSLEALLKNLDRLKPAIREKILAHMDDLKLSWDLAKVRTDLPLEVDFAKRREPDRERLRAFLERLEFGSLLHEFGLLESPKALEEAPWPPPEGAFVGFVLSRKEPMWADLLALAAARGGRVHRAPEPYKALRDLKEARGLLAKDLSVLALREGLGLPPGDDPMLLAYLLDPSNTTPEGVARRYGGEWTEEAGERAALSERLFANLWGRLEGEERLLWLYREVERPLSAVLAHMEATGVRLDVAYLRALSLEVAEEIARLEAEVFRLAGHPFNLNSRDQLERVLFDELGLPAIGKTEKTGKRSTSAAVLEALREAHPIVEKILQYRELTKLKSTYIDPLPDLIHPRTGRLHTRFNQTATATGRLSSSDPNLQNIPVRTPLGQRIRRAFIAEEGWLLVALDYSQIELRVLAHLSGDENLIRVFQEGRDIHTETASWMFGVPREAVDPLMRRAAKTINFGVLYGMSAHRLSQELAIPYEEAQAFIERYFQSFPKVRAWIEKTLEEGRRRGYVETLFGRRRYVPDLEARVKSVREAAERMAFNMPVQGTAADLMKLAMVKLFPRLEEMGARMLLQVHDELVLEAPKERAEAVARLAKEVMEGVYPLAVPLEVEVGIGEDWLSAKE

## C[N+]1(CCC(=O)[O-])CCC(O)CC1 (stereo not shown) [Compound 102, 3-(4-hydroxy-1-methylpiperidinium-1-yl)propanoate]
  polymerase activity after storage (end-point PCR): provides increased stability
